Experimental data taken from PubChem BioAssay (NCI).
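GI50 is the concentration that inhibits growth by half. TGI marks complete inhibition of growth.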

Key:
Assay in all cases: NCI-60 cell line screen, 384-well format
[1] = system: A498 renal
[2] = system: ACHN renal
[3] = system: K-562 leukemia
[4] = system: SW-620 colon
[5] = system: M14 melanoma
[6] = system: LOX IMVI melanoma
[7] = system: HL-60(TB) leukemia
[8] = system: OVCAR-8 ovarian
[9] = system: PC-3 prostate
[10] = system: HCT-15 colon
[11] = system: SF-268 CNS
[12] = system: NCI-H23 lung
[13] = system: DU-145 prostate
[14] = system: COLO 205 colon
[15] = system: CAKI-1 renal
[16] = system: SF-539 CNS
[17] = system: SK-OV-3 ovarian
[18] = system: KM12 colon
[19] = system: NCI-H460 NSCLC
[20] = system: CCRF-CEM leukemia
[21] = system: SK-MEL-28 melanoma
[22] = system: RPMI-8226 leukemia
[23] = system: SF-295 CNS
[24] = system: 786-0 renal
[25] = system: U251 glioblastoma
[26] = system: TK-10 renal
[27] = system: NCI-H226 lung
[28] = system: OVCAR-3 ovarian
[29] = system: NCI/ADR-RES ovarian
[30] = system: SNB-19 CNS
[31] = system: MDA-MB-231 breast
[32] = system: MOLT-4 leukemia
[33] = system: HCC-2998 colon
[34] = system: MALME-3M melanoma
[35] = system: HOP-92 NSCLC
[36] = system: HT29 colon
[37] = system: SN12C renal
[38] = system: NCI-H322M lung
[39] = system: HOP-62 NSCLC
[40] = system: A549 NSCLC
[41] = system: OVCAR-4 ovarian
[42] = system: UO-31 renal
[43] = system: MDA-MB-435 melanoma
[44] = system: SK-MEL-2 melanoma
[45] = system: HCT-116 colon
[46] = system: T-47D breast
[47] = system: UACC-62 melanoma
[48] = system: OVCAR-5 ovarian
[49] = system: IGROV1 ovarian
[50] = system: UACC-257 melanoma

Question: With `CO[C@H]1C[C@@H]2CC[C@@H](C)[C@@](O)(O2)C(=O)C(=O)N2CCCC[C@H]2C(=O)O[C@H]([C@H](C)C[C@@H]2CC[C@@H](OP(C)(C)=O)[C@H](OC)C2)CC(=O)[C@H](C)/C=C(\C)[C@@H](O)[C@@H](OC)C(=O)[C@H](C)C[C@H](C)/C=C/C=C/C=C/1C` as the compound, how does the GI50 [1] read?
Answer: Its GI50 is under 0.01 µM.

Question: What about the TGI [1] of the same compound?
Answer: Its TGI is 17.6 µM.

Question: And the GI50 [2]?
Answer: The GI50 was 12.4 µM.

Question: And the TGI [2]?
Answer: The TGI was 25.2 µM.

Question: What about the GI50 [3] of the same compound?
Answer: Its GI50 is 11.2 µM.

Question: And the TGI [3]?
Answer: Its TGI is 23.4 µM.

Question: And the GI50 [4]?
Answer: The GI50 was 14.9 µM.

Question: What about the TGI [4] of the same compound?
Answer: The TGI was 28.6 µM.

Question: What about the GI50 [5] of the same compound?
Answer: The GI50 was 10.4 µM.

Question: What about the TGI [5] of the same compound?
Answer: The TGI was 22.2 µM.

Question: And the GI50 [6]?
Answer: Its GI50 is 17.5 µM.

Question: And the TGI [6]?
Answer: Its TGI is 31.4 µM.

Question: What about the GI50 [7] of the same compound?
Answer: The GI50 was 15.3 µM.

Question: What about the TGI [7] of the same compound?
Answer: Its TGI is 28.7 µM.

Question: What about the GI50 [8] of the same compound?
Answer: The GI50 was 11 µM.

Question: What about the TGI [8] of the same compound?
Answer: The TGI was 23.2 µM.

Question: What about the GI50 [9] of the same compound?
Answer: Its GI50 is 1.06 µM.

Question: And the TGI [9]?
Answer: Its TGI is 21.3 µM.

Question: And the GI50 [10]?
Answer: The GI50 was 11.4 µM.

Question: And the TGI [10]?
Answer: The TGI was 23.9 µM.

Question: And the GI50 [11]?
Answer: Its GI50 is 12.5 µM.

Question: What about the TGI [11] of the same compound?
Answer: The TGI was 25.3 µM.

Question: And the GI50 [12]?
Answer: The GI50 was 19.5 µM.

Question: And the TGI [12]?
Answer: Its TGI is 35.2 µM.

Question: And the GI50 [13]?
Answer: Its GI50 is 11.3 µM.

Question: And the TGI [13]?
Answer: Its TGI is 26.8 µM.

Question: And the GI50 [14]?
Answer: The GI50 was 13.5 µM.

Question: What about the TGI [14] of the same compound?
Answer: Its TGI is 26.5 µM.

Question: What about the GI50 [15] of the same compound?
Answer: The GI50 was 10.5 µM.

Question: And the TGI [15]?
Answer: Its TGI is 23.1 µM.

Question: What about the GI50 [16] of the same compound?
Answer: Its GI50 is under 0.01 µM.

Question: What about the TGI [16] of the same compound?
Answer: Its TGI is 20.7 µM.

Question: What about the GI50 [17] of the same compound?
Answer: Its GI50 is under 0.01 µM.

Question: And the TGI [17]?
Answer: The TGI was 20.2 µM.

Question: And the GI50 [18]?
Answer: Its GI50 is 13.4 µM.

Question: What about the TGI [18] of the same compound?
Answer: Its TGI is 26.6 µM.

Question: And the GI50 [19]?
Answer: The GI50 was under 0.01 µM.

Question: What about the TGI [19] of the same compound?
Answer: The TGI was 17.4 µM.

Question: What about the GI50 [20] of the same compound?
Answer: Its GI50 is 0.0126 µM.

Question: And the TGI [20]?
Answer: The TGI was 17 µM.

Question: And the GI50 [21]?
Answer: The GI50 was 12.2 µM.

Question: What about the TGI [21] of the same compound?
Answer: The TGI was 24.7 µM.

Question: What about the GI50 [22] of the same compound?
Answer: Its GI50 is under 0.01 µM.

Question: And the GI50 [23]?
Answer: The GI50 was under 0.01 µM.

Question: What about the TGI [23] of the same compound?
Answer: Its TGI is 16.6 µM.

Question: And the GI50 [24]?
Answer: The GI50 was 11.2 µM.

Question: What about the TGI [24] of the same compound?
Answer: Its TGI is 23.5 µM.

Question: And the GI50 [25]?
Answer: The GI50 was 4.92 µM.

Question: What about the TGI [25] of the same compound?
Answer: The TGI was 21.3 µM.

Question: What about the GI50 [26] of the same compound?
Answer: Its GI50 is 11.6 µM.

Question: What about the TGI [26] of the same compound?
Answer: The TGI was 28.6 µM.

Question: What about the GI50 [27] of the same compound?
Answer: Its GI50 is 12.4 µM.

Question: And the TGI [27]?
Answer: The TGI was 25.3 µM.

Question: What about the GI50 [28] of the same compound?
Answer: Its GI50 is 11.2 µM.

Question: And the TGI [28]?
Answer: Its TGI is 23.4 µM.

Question: And the GI50 [29]?
Answer: The GI50 was 15.4 µM.

Question: What about the TGI [29] of the same compound?
Answer: The TGI was 38.7 µM.

Question: And the GI50 [30]?
Answer: Its GI50 is 13.5 µM.

Question: What about the TGI [30] of the same compound?
Answer: The TGI was 26.9 µM.

Question: What about the GI50 [31] of the same compound?
Answer: Its GI50 is 12 µM.

Question: And the TGI [31]?
Answer: Its TGI is 24.4 µM.

Question: And the GI50 [32]?
Answer: Its GI50 is under 0.01 µM.

Question: What about the TGI [32] of the same compound?
Answer: Its TGI is 11.7 µM.

Question: What about the GI50 [33] of the same compound?
Answer: The GI50 was 12.3 µM.

Question: And the TGI [33]?
Answer: The TGI was 24.9 µM.

Question: And the GI50 [34]?
Answer: Its GI50 is under 0.01 µM.

Question: And the TGI [34]?
Answer: The TGI was 21.2 µM.

Question: What about the GI50 [35] of the same compound?
Answer: Its GI50 is 12.5 µM.

Question: And the TGI [35]?
Answer: Its TGI is 25.5 µM.

Question: And the GI50 [36]?
Answer: The GI50 was 12.5 µM.

Question: And the TGI [36]?
Answer: Its TGI is 25.2 µM.

Question: What about the GI50 [37] of the same compound?
Answer: Its GI50 is 14 µM.

Question: What about the TGI [37] of the same compound?
Answer: Its TGI is 27.2 µM.

Question: What about the GI50 [38] of the same compound?
Answer: The GI50 was under 0.01 µM.

Question: And the TGI [38]?
Answer: Its TGI is 25.3 µM.

Question: And the GI50 [39]?
Answer: Its GI50 is 0.491 µM.

Question: And the TGI [39]?
Answer: The TGI was 21.7 µM.

Question: And the GI50 [40]?
Answer: The GI50 was under 0.01 µM.

Question: What about the TGI [40] of the same compound?
Answer: The TGI was 39.9 µM.

Question: What about the GI50 [41] of the same compound?
Answer: Its GI50 is 12 µM.

Question: What about the TGI [41] of the same compound?
Answer: The TGI was 25 µM.

Question: What about the GI50 [42] of the same compound?
Answer: The GI50 was under 0.01 µM.

Question: And the TGI [42]?
Answer: The TGI was 0.0198 µM.

Question: What about the GI50 [43] of the same compound?
Answer: The GI50 was 14.2 µM.

Question: What about the TGI [43] of the same compound?
Answer: Its TGI is 27.9 µM.

Question: What about the GI50 [44] of the same compound?
Answer: Its GI50 is 11 µM.

Question: And the TGI [44]?
Answer: The TGI was 23 µM.

Question: What about the GI50 [45] of the same compound?
Answer: The GI50 was 12.4 µM.

Question: And the TGI [45]?
Answer: The TGI was 25.2 µM.

Question: What about the GI50 [46] of the same compound?
Answer: Its GI50 is under 0.01 µM.

Question: And the TGI [46]?
Answer: The TGI was 25 µM.

Question: What about the GI50 [47] of the same compound?
Answer: Its GI50 is 7.86 µM.

Question: What about the TGI [47] of the same compound?
Answer: The TGI was 21.6 µM.

Question: What about the GI50 [48] of the same compound?
Answer: The GI50 was 15.3 µM.

Question: What about the TGI [48] of the same compound?
Answer: The TGI was 29.8 µM.

Question: And the GI50 [49]?
Answer: The GI50 was under 0.01 µM.

Question: And the TGI [49]?
Answer: The TGI was 16 µM.

Question: And the GI50 [50]?
Answer: The GI50 was 15.3 µM.

Question: What about the TGI [50] of the same compound?
Answer: Its TGI is 28.7 µM.
